Experiment [1] can be described thus: DPPH radical scavenging assay (antioxidant activity). As to conditions: Table S33, positive control ascorbic acid. The source says:
The procedures of the DPPH radical scavenging test were the same as Zhong. Ascorbic acid was used as the positive control.
On the technique in general: The DPPH test is a chemical assay of radical scavenging.

The subject of a further experiment is Bacillus subtilis BS01. Nature of the experiment: Antibacterial assay (MIC), B. subtilis. Type of experiment: cell-based. As to conditions: Table S32, positive control ciprofloxacin. The source says: (§1) The bacteria Vibrio alginolyticus XSBZ14, Enterococcus faecalis ATCC 29212, Acinetobacter baumannii ATCC 19606, Escherichia coli ATCC 25922, Bacillus subtilis BS01, Klebsiella pneumoniae ATCC 13883, Exiguobacterium profundum Staphylococcus aureus ATCC 29213 and MRSA 107352 were used to measure antibacterial activity. The procedures of the antibacterial test were the same as Zhang. Ciprofloxacin was used as the positive control.

The test system of experiment [2] is Exiguobacterium profundum. Nature of the experiment: Antibacterial assay (MIC), E. profundum. Type of experiment: cell-based. As to conditions: Table S32, positive control ciprofloxacin.
Text: as §1

Experiment [3] concerns Enterococcus faecalis ATCC 29212. The experiment can be described thus: Antibacterial assay (MIC), E. faecalis. The format is cell-based. As to conditions: ATCC29212, Table S32, positive control ciprofloxacin.
Text: as §1

Experiment [4] has as its system Acinetobacter baumannii ATCC 19606. Nature of the experiment: Antibacterial assay (MIC), A. baumannii. The conditions noted are these: ATCC19606, Table S32, positive control ciprofloxacin. Type of experiment: cell-based.
Text: as §1

Experiment [5] concerns Staphylococcus aureus ATCC 29213. Nature of the experiment: Antibacterial assay (MIC), S. aureus. Type of experiment: cell-based. The conditions noted are these: ATCC29213, Table S32, positive control ciprofloxacin.
Text: as §1

In another experiment the test system is MRSA 107352. Nature of the experiment: Antibacterial assay (MIC), MRSA. Type of experiment: cell-based. The conditions noted are these: Staphylococcus aureus, Table S32, positive control ciprofloxacin.
Text: as §1

For experiment [6], the system named is six bacteria (B. subtilis, E. profundum, E. faecalis, S. aureus, MRSA, A. baumannii). The experiment can be described thus: Antibacterial assay, summary over the sensitive bacteria. The format is cell-based.
Text: as §1

Five compounds from PMC10971832, “New Phenol Derivatives from the Haima Cold Seep-Derived Fungus Aspergillus subversicolor CYH-17” (Marine Drugs, 2024) can be followed below.

Structures are written as SMILES. Values after ≈ are worked out from the molar mass of the structure shown.

In experiment [1], `O=C1O[C@H]([C@@H](O)CO)C(O)=C1O` [Ascorbic acid, reference compound] registered an IC50 of 16.7 ± 0.7 µM.
For the compound `CCC(C)C=C(C)C=CC(=O)Cc1cc(O)c(C)c(O)c1C(=O)O` (stereo not shown) [Compound 1, subversin A], the MIC is above 200 µM with Bacillus subtilis BS01; 100 µM (≈ 33.2 µg/mL) in experiment [2]; above 200 µM in experiment [3]; above 200 µM in experiment [4]; above 200 µM in experiment [5]; above 200 µM against MRSA 107352.
`Cc1cc(O)cc2oc3cc(O)cc(C)c3c12` [Compound 10, 3,7-dihydroxy-1,9-dimethyldibenzofuran]: the minimum inhibitory concentration (MIC) against Bacillus subtilis BS01 turned out to be 0.1 µM (≈ 0.0228 µg/mL); in experiment [2], 25 µM (≈ 5.71 µg/mL); in experiment [3], 25 µM (≈ 5.71 µg/mL); in experiment [4], 50 µM (≈ 11.4 µg/mL); in experiment [5] it was 25 µM (≈ 5.71 µg/mL); against MRSA 107352, 12.5 µM (≈ 2.85 µg/mL). The compound also had an MIC in experiment [6] (range over six inhibited bacteria) of 0.1 to 50 µM (≈ 0.0228 to 11.4 µg/mL). Also, the IC50 in experiment [1] was 48.9 ± 9.8 µM. The “inhibitory activity against bacteria (in words)” value in experiment [6] (five Gram-positive bacteria (B. subtilis, E. profundum, E. faecalis, S. aureus and MRSA) and one Gram-negative bacterium (A. baumannii)) is “displayed inhibitory activity”.
`COc1c(O)cc(C)cc1Oc1cc(C)cc(O)c1` [Compound 11, 2-methoxyl cordyol C]: the MIC with Bacillus subtilis BS01 was above 200 µM; in experiment [2] it was 100 µM (≈ 26 µg/mL); in experiment [3] it was above 200 µM; in experiment [4], above 200 µM; in experiment [5] it was above 200 µM; against MRSA 107352 it was above 200 µM.
Turning to `O=C(O)c1cn(C2CC2)c2cc(N3CCNCC3)c(F)cc2c1=O` [ciprofloxacin, Ciprofloxacin, reference compound], the MIC is 0.03 µM (≈ 0.00994 µg/mL) with Bacillus subtilis BS01; 0.2 µM (≈ 0.0663 µg/mL) in experiment [2]; 0.8 µM (≈ 0.265 µg/mL) in experiment [3]; 0.4 µM (≈ 0.133 µg/mL) in experiment [4]; 0.8 µM (≈ 0.265 µg/mL) in experiment [5]; 1.6 µM (≈ 0.53 µg/mL) against MRSA 107352.

By IC50 is commonly meant the concentration needed to halve the response being measured. Usually MIC stands for the lowest concentration found to suppress growth. A higher MIC goes with weaker potency.
